Reference: PubChem BioAssay (NCI)
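Each compound was tested at five concentrations against cells in 96-well plates for 48 hours. GI50 is the concentration that inhibits growth by half. At the TGI there is no net growth.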

Experiments:
Experiment in all cases: NCI anticancer screen, dose series, 48 h
786-0 renal = tested on: 786-0 renal
A498 renal = tested on: A498 renal
A549 NSCLC = tested on: A549 NSCLC
ACHN renal = tested on: ACHN renal
BT-549 breast = tested on: BT-549 breast
CAKI-1 renal = tested on: CAKI-1 renal
CCRF-CEM leukemia = tested on: CCRF-CEM leukemia
COLO 205 colon = tested on: COLO 205 colon
DU-145 prostate = tested on: DU-145 prostate
EKVX NSCLC = tested on: EKVX NSCLC
HCC-2998 colon = tested on: HCC-2998 colon
HCT-116 colon = tested on: HCT-116 colon
HCT-15 colon = tested on: HCT-15 colon
HL-60(TB) leukemia = tested on: HL-60(TB) leukemia
HOP-62 NSCLC = tested on: HOP-62 NSCLC
HOP-92 NSCLC = tested on: HOP-92 NSCLC
HS 578T breast = tested on: HS 578T breast
HT29 colon = tested on: HT29 colon
IGROV1 ovarian = tested on: IGROV1 ovarian
K-562 leukemia = tested on: K-562 leukemia
KM12 colon = tested on: KM12 colon
LOX IMVI melanoma = tested on: LOX IMVI melanoma
M14 melanoma = tested on: M14 melanoma
MALME-3M melanoma = tested on: MALME-3M melanoma
MCF7 breast = tested on: MCF7 breast
MDA-MB-231 breast = tested on: MDA-MB-231 breast
MDA-MB-435 = tested on: MDA-MB-435
MDA-MB-468 breast = tested on: MDA-MB-468 breast
MOLT-4 leukemia = tested on: MOLT-4 leukemia
NCI-H226 lung = tested on: NCI-H226 lung
NCI-H23 lung = tested on: NCI-H23 lung
NCI-H460 lung = tested on: NCI-H460 lung
NCI-H522 lung = tested on: NCI-H522 lung
NCI/ADR-RES ovarian = tested on: NCI/ADR-RES ovarian
OVCAR-3 ovarian = tested on: OVCAR-3 ovarian
OVCAR-4 ovarian = tested on: OVCAR-4 ovarian
OVCAR-5 ovarian = tested on: OVCAR-5 ovarian
OVCAR-8 ovarian = tested on: OVCAR-8 ovarian
PC-3 prostate = tested on: PC-3 prostate
RPMI-8226 leukemia = tested on: RPMI-8226 leukemia
RXF 393 renal = tested on: RXF 393 renal
SF-268 CNS = tested on: SF-268 CNS
SF-295 CNS = tested on: SF-295 CNS
SF-539 CNS = tested on: SF-539 CNS
SK-MEL-2 melanoma = tested on: SK-MEL-2 melanoma
SK-MEL-28 melanoma = tested on: SK-MEL-28 melanoma
SK-MEL-5 melanoma = tested on: SK-MEL-5 melanoma
SK-OV-3 ovarian = tested on: SK-OV-3 ovarian
SN12C renal = tested on: SN12C renal
SNB-19 CNS = tested on: SNB-19 CNS
SNB-75 CNS = tested on: SNB-75 CNS
SR leukemia = tested on: SR leukemia
SW-620 colon = tested on: SW-620 colon
T-47D breast = tested on: T-47D breast
TK-10 renal = tested on: TK-10 renal
U251 CNS = tested on: U251 CNS
UACC-257 melanoma = tested on: UACC-257 melanoma
UACC-62 melanoma = tested on: UACC-62 melanoma
UO-31 renal = tested on: UO-31 renal

**Q.** Which results are given for `CC(=O)Nc1nc(-c2ccc(N3CCN(C)CC3)c(NS(=O)(=O)c3cccc4c(N(C)C)cccc34)c2)cs1`?
**A.** GI50 (786-0 renal): 11.7 µM; TGI (786-0 renal): 24.6 µM; GI50 (A498 renal): 13.1 µM; TGI (A498 renal): 24.5 µM; GI50 (A549 NSCLC): 14.2 µM; TGI (A549 NSCLC): 30.2 µM; GI50 (ACHN renal): 13.7 µM; TGI (ACHN renal): 25.3 µM; GI50 (BT-549 breast): 11.3 µM; TGI (BT-549 breast): 23.5 µM; GI50 (CAKI-1 renal): 14 µM; TGI (CAKI-1 renal): 26.2 µM; GI50 (CCRF-CEM leukemia): 13.2 µM; TGI (CCRF-CEM leukemia): 38.2 µM; GI50 (COLO 205 colon): 12.5 µM; TGI (COLO 205 colon): 27.9 µM; GI50 (DU-145 prostate): 14 µM; TGI (DU-145 prostate): 26 µM; GI50 (EKVX NSCLC): 13.1 µM; TGI (EKVX NSCLC): 25.7 µM; GI50 (HCC-2998 colon): 12.4 µM; TGI (HCC-2998 colon): 24 µM; GI50 (HCT-116 colon): 12.3 µM; TGI (HCT-116 colon): 28.8 µM; GI50 (HCT-15 colon): 12.6 µM; TGI (HCT-15 colon): 25.4 µM; GI50 (HL-60(TB) leukemia): 9.4 µM; TGI (HL-60(TB) leukemia): 24.9 µM; GI50 (HOP-62 NSCLC): 12.6 µM; TGI (HOP-62 NSCLC): 25.8 µM; GI50 (HOP-92 NSCLC): 9.15 µM; TGI (HOP-92 NSCLC): 20.4 µM; GI50 (HS 578T breast): 11.6 µM; TGI (HS 578T breast): 43.6 µM; GI50 (HT29 colon): 8.91 µM; TGI (HT29 colon): 21.3 µM; GI50 (IGROV1 ovarian): 14.2 µM; TGI (IGROV1 ovarian): 26.3 µM; GI50 (K-562 leukemia): 15.9 µM; TGI (K-562 leukemia): 85.5 µM; GI50 (KM12 colon): 14.4 µM; TGI (KM12 colon): 28.4 µM; GI50 (LOX IMVI melanoma): 10.7 µM; TGI (LOX IMVI melanoma): 21.9 µM; GI50 (M14 melanoma): 12.8 µM; TGI (M14 melanoma): 25.8 µM; GI50 (MALME-3M melanoma): 11.4 µM; TGI (MALME-3M melanoma): 22.4 µM; GI50 (MCF7 breast): 10.8 µM; TGI (MCF7 breast): 24 µM; GI50 (MDA-MB-231 breast): 14.4 µM; TGI (MDA-MB-231 breast): 26.6 µM; GI50 (MDA-MB-435): 13 µM; TGI (MDA-MB-435): 25.4 µM; GI50 (MDA-MB-468 breast): 10.7 µM; TGI (MDA-MB-468 breast): 22.3 µM; GI50 (MOLT-4 leukemia): 13.3 µM; TGI (MOLT-4 leukemia): 37.9 µM; GI50 (NCI-H226 lung): 13.3 µM; TGI (NCI-H226 lung): 28.3 µM; GI50 (NCI-H23 lung): 11.3 µM; TGI (NCI-H23 lung): 23.6 µM; GI50 (NCI-H460 lung): 14.4 µM; TGI (NCI-H460 lung): 29 µM; GI50 (NCI-H522 lung): 12.6 µM; TGI (NCI-H522 lung): 25.6 µM; GI50 (NCI/ADR-RES ovarian): 16.6 µM; TGI (NCI/ADR-RES ovarian): 37.1 µM; GI50 (OVCAR-3 ovarian): 11.5 µM; TGI (OVCAR-3 ovarian): 23.3 µM; GI50 (OVCAR-4 ovarian): 13.6 µM; TGI (OVCAR-4 ovarian): 28.2 µM; GI50 (OVCAR-5 ovarian): 12.6 µM; TGI (OVCAR-5 ovarian): 23.9 µM; GI50 (OVCAR-8 ovarian): 16.9 µM; TGI (OVCAR-8 ovarian): 45.6 µM; GI50 (PC-3 prostate): 11.2 µM; TGI (PC-3 prostate): 28.1 µM; GI50 (RPMI-8226 leukemia): 8.05 µM; TGI (RPMI-8226 leukemia): 53.6 µM; GI50 (RXF 393 renal): 9.16 µM; TGI (RXF 393 renal): 20.3 µM; GI50 (SF-268 CNS): 12.4 µM; TGI (SF-268 CNS): 25.3 µM; GI50 (SF-295 CNS): 7.22 µM; TGI (SF-295 CNS): 18.3 µM; GI50 (SF-539 CNS): 9.78 µM; TGI (SF-539 CNS): 20.1 µM; GI50 (SK-MEL-2 melanoma): 13.6 µM; TGI (SK-MEL-2 melanoma): 26.2 µM; GI50 (SK-MEL-28 melanoma): 10.5 µM; TGI (SK-MEL-28 melanoma): 21.1 µM; GI50 (SK-MEL-5 melanoma): 11.9 µM; TGI (SK-MEL-5 melanoma): 23.2 µM; GI50 (SK-OV-3 ovarian): 13.2 µM; TGI (SK-OV-3 ovarian): 26.8 µM; GI50 (SN12C renal): 12.1 µM; TGI (SN12C renal): 23.7 µM; GI50 (SNB-19 CNS): 12.2 µM; TGI (SNB-19 CNS): 23.5 µM; GI50 (SNB-75 CNS): 9.24 µM; TGI (SNB-75 CNS): 19.7 µM; GI50 (SR leukemia): 3.27 µM; TGI (SR leukemia): 18.2 µM; GI50 (SW-620 colon): 13.1 µM; TGI (SW-620 colon): 25.4 µM; GI50 (T-47D breast): 12 µM; TGI (T-47D breast): 28.9 µM; GI50 (TK-10 renal): 16.4 µM; TGI (TK-10 renal): 29.1 µM; GI50 (U251 CNS): 11.1 µM; TGI (U251 CNS): 23.3 µM; GI50 (UACC-257 melanoma): 13.1 µM; TGI (UACC-257 melanoma): 25.8 µM; GI50 (UACC-62 melanoma): 12.8 µM; TGI (UACC-62 melanoma): 24.1 µM; GI50 (UO-31 renal): 10.9 µM; TGI (UO-31 renal): 21.7 µM
